The values that follow are results of earlier work, collected in patent US20020028759A1, “Detergent compositions” (Unilever Home & Personal Care USA, Division of Conopco, Inc., priority 1999, published 2002).

Like-named read-outs stand apart in the source and are kept apart here.

The conditions of this series: 20° C.
Where [1] appears, read: other common materials, by contrast.

`O=BO[O-].[Na+]` [Sodium perborate anhydrous]: under setting [1], the “Water Solubility (g/100 g)” value is 3.7 g/100 g.
As for `O=P(O)(O)OP(=O)(O)OP(=O)(O)O` [Sodium tripolyphosphate anhydrous], the “Water Solubility (g/100 g)” value under setting [1] is 15 g/100 g.
Take `NC(N)=O` [Urea]: the “Water Solubility (g/100 g)” value (highly water-soluble materials) is reported as >100 g/100 g.
